# From US8703950B2, “Low ABUK oxycodone, its salts and methods of making same” (Johnson Matthey Public Limited Co., priority 2010, dated 2014)
# What was measured:
# [1] = mixture of the two diol species in acid, 20 hour period
# [2] = Hot acid stress test (aq. HCl, 65° C., 14-hydroxycodeinone monitored by LC/MS); type: physicochemical; conditions: for growth in 14-hydroxycodeinone in hot acid: 65° C. aq. hydrochloride acid at pH<1, after 24 hours; for ABUK (14-hydroxycodeinone) level, 2 hours in hot acid / ABUK (14-hydroxycodeinone) level, 5 hours in hot acid / ABUK (14-hydroxycodeinone) level, 24 hours in hot acid: 65° C., aq. HCl; for ABUK (14-hydroxycodeinone) level, 0 hours in hot acid (T-zero): before heating, water + 3N aq. HCl
# [3] = Dry heat stress test (lab drying oven under air at 62° C., 14-hydroxycodeinone monitored by LC/MS); type: physicochemical; conditions: for growth of 14-hydroxycodeinone, dry heat: dry heat (greater than 60° C.), after 14 days; for ABUK (14-hydroxycodeinone) level, 4 days at 62° C. / ABUK (14-hydroxycodeinone) level, 7 days at 62° C. / ABUK (14-hydroxycodeinone) level, 14 days at 62° C.: dry heat, under air; for growth in the level of 14-hydroxycodeinone, dry heat at 62° C.: under air at 62° C., monitored for 14 days
# Description: A 0.0225 g (0.597 sample of low ABUK oxycodone HCl (T-zero: 3.9 ppm 14-hydroxycodeinone) was placed in a standard lab drying oven under air at 62° C. and the level of 14-hydroxycodeinone was monitored by LC/MS for 14 days. No growth in the level of 14-hydroxycodeinone was observed.
# A 0.0225 g (0.597 sample of low ABUK oxycodone (T zero: 3.3 ppm 14-hydroxycodeinone by LC/MS was placed in a standard lab drying oven under air at 62° C. and the level of 14-hydroxycodeinone was monitored by LC/MS for 14 days. No growth in the level of 14-hydroxycodeinone was observed
# 1.10 Procedure: • Separately inject the diluent as a blank. • Inject the resolution solution once. • Inject the impurity working standard three times. • Inject each sample solution under the full gradient. • Inject the diluent at the end. • Quantify the level of 14-Hydroxy Codeinone in the sample by comparing to the averaged corresponding peak specific response (SR) of the standard solution. • Report the level of 14-Hydroxy Codeinone found in the sample to the nearest 0.0001%. • Report the peak area of the diols for information only.
SMILES,degradation on exposure to acid [1],growth in 14-hydroxycodeinone in hot acid [2],"ABUK (14-hydroxycodeinone) level, 2 hours in hot acid [2] [ppm]","ABUK (14-hydroxycodeinone) level, 5 hours in hot acid [2] [ppm]","ABUK (14-hydroxycodeinone) level, 24 hours in hot acid [2] [ppm]","ABUK (14-hydroxycodeinone) level, 0 hours in hot acid (T-zero) [2] [ppm]","ABUK (14-hydroxycodeinone) level, 0 hours in hot acid (T-zero) ([2]; listed as low ABUK oxycodone base) [ppm]","ABUK (14-hydroxycodeinone) level, T-zero (dry heat test) [3] [ppm]","growth of 14-hydroxycodeinone, dry heat [3]","ABUK (14-hydroxycodeinone) level, 4 days at 62° C. [3] [ppm]","ABUK (14-hydroxycodeinone) level, 7 days at 62° C. [3] [ppm]","ABUK (14-hydroxycodeinone) level, 14 days at 62° C. [3] [ppm]","growth in the level of 14-hydroxycodeinone, dry heat at 62° C. [3]"
"COc1ccc2c3c1O[C@H]1C(=O)C[C@H](O)[C@@]4(O)[C@@H](C2)N(C)CC[C@]314 (single isomer, unassigned) [peak at RRT 0.91]",degraded little,,,,,,,,,,,,
"COc1ccc2c3c1O[C@H]1C(=O)CC[C@@]4(O)[C@@H](C2)N(C)CC[C@]314 [Oxycodone Base from Example 9, oxycodone base]",,no or minimal growth,2.5,3.3,6.4,2.5,2.7,3.3,no growth,3.4,3.3,3.6,No growth
"COc1ccc2c3c1O[C@H]1C(=O)CC[C@@]4(O)[C@@H](C2)N(C)CC[C@]314.Cl [Oxycodone Hydrochloride from Example 11, oxycodone HCl]",,no or minimal growth,3.6,4.2,6.1,2.5,,3.9,no growth,3.7,4.0,3.7,No growth
